The record followed here is PubChem BioAssay (NCI).

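Each compound was tested at five concentrations against cells in 96-well plates for 48 hours. At the GI50, growth is halved. At the TGI there is no net growth.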

Test systems include MALME-3M melanoma; M14 melanoma; OVCAR-8 ovarian; KM12 colon; SNB-19 CNS; CCRF-CEM leukemia; HCT-116 colon; COLO 205 colon; RXF 393 renal; UACC-257 melanoma.
Holding throughout (experiment): growth of human tumour cells (NCI), 48 h

Turning to `CC(C)(C)n1cc(-c2ccnc(NCCCNS(=O)(=O)c3ccc(Cl)cc3)c2)c(-c2cccc(O)c2)n1`, the GI50 is 1.66 µM in the test with MALME-3M melanoma; 1.72 µM in the test with M14 melanoma; 2.22 µM in the test on OVCAR-8 ovarian; 2.08 µM in the test on KM12 colon; 2.18 µM in the test with SNB-19 CNS; 2.13 µM in the test with CCRF-CEM leukemia. Besides, the GI50 with HCT-116 colon is 1.67 µM; in the test with COLO 205 colon, 1.66 µM; in the test on RXF 393 renal, 1.46 µM; in the test with UACC-257 melanoma, 1.86 µM. For the same compound, the TGI in the test with MALME-3M melanoma stood at 3.41 µM; in the test on M14 melanoma, 3.45 µM; in the test on OVCAR-8 ovarian it was 5.81 µM; in the test with KM12 colon, 4.44 µM; in the test on SNB-19 CNS, 4.96 µM; in the test with CCRF-CEM leukemia, 7.85 µM. Besides, the TGI with HCT-116 colon turned out to be 3.22 µM; in the test with COLO 205 colon, 3.39 µM; in the test on RXF 393 renal, 2.99 µM; in the test with UACC-257 melanoma, 3.81 µM.

Turning to `CCCCCCCCCCCCCCCCCCOCC1(COP(=O)([O-])OCC[N+](C)(C)C)CCCO1` (stereo not given), the TGI in the test with MALME-3M melanoma came to 26.2 µM; in the test on M14 melanoma, 8.59 µM; with OVCAR-8 ovarian it was 26.5 µM; with KM12 colon, 3.33 µM; with SNB-19 CNS it was 11.1 µM; in the test with CCRF-CEM leukemia it was 11.6 µM. The TGI in the test on HCT-116 colon worked out at 22 µM; in the test on COLO 205 colon it was 3.63 µM; in the test with RXF 393 renal, 1.89 µM; in the test on UACC-257 melanoma, 27.3 µM.

Regarding `O=C(O)CCc1nc(-c2ccccc2)c(-c2ccccc2)o1`, the TGI with MALME-3M melanoma, with M14 melanoma, in the test with OVCAR-8 ovarian, with KM12 colon, in the test on SNB-19 CNS and in the test on CCRF-CEM leukemia was over 100 µM each time. Also, the TGI in the test with HCT-116 colon, in the test on COLO 205 colon, with RXF 393 renal and in the test with UACC-257 melanoma was over 100 µM each time.

For `c1cc(-c2cnn3nc(N4CCOCC4)ccc23)nc(NC2CC2)n1`, the GI50 in the test with MALME-3M melanoma is 12.1 µM; in the test on M14 melanoma, 9.04 µM; with OVCAR-8 ovarian it was 7.9 µM; in the test with KM12 colon it was 8.13 µM; with SNB-19 CNS it was 10.6 µM; with CCRF-CEM leukemia it was 4.95 µM. In addition, the GI50 was 7.55 µM in the test with HCT-116 colon, 8.06 µM in the test on COLO 205 colon, 4.58 µM with RXF 393 renal and 7.54 µM in the test with UACC-257 melanoma. The TGI in the test with MALME-3M melanoma, in the test on M14 melanoma, in the test with OVCAR-8 ovarian, in the test on KM12 colon, in the test with SNB-19 CNS and in the test on CCRF-CEM leukemia was over 25 µM throughout. Besides, the TGI is 24.6 µM in the test on HCT-116 colon, over 23.5 µM in the test on COLO 205 colon, 10.8 µM in the test on RXF 393 renal and over 25 µM in the test on UACC-257 melanoma.

With `COc1ccc(-c2cc3nccn3c(Nc3ncccc3C(N)=O)n2)cc1OC`, the GI50 was over 100 µM in the test with MALME-3M melanoma; over 65.7 µM in the test with M14 melanoma; 0.955 µM in the test with OVCAR-8 ovarian; 2.62 µM in the test with KM12 colon; over 100 µM with SNB-19 CNS; 0.827 µM in the test with CCRF-CEM leukemia. The GI50 in the test on HCT-116 colon is 0.516 µM; in the test on COLO 205 colon, 1.21 µM; in the test with RXF 393 renal it was 0.613 µM; in the test with UACC-257 melanoma, over 100 µM. The TGI in the test on MALME-3M melanoma was over 100 µM; with M14 melanoma, over 100 µM; with OVCAR-8 ovarian it was over 100 µM; with KM12 colon, 27.3 µM; in the test with SNB-19 CNS it was over 100 µM; in the test on CCRF-CEM leukemia, over 100 µM. The TGI in the test on HCT-116 colon was over 47.4 µM; in the test with COLO 205 colon it was over 100 µM; in the test on RXF 393 renal it was 18.4 µM; in the test with UACC-257 melanoma, over 100 µM.

Take `O/N=C1/C(=C/c2ccc(Cl)cc2)CCCC1C(NO)c1ccc(Cl)cc1` (stereo not given): the TGI worked out at 64.6 µM in the test with MALME-3M melanoma; 33.8 µM in the test on M14 melanoma; 55.3 µM in the test with OVCAR-8 ovarian; 40.6 µM with KM12 colon; 76.6 µM in the test with SNB-19 CNS; 42.6 µM with CCRF-CEM leukemia. Also, the TGI in the test with HCT-116 colon was 67.1 µM; in the test on COLO 205 colon, 42.3 µM; in the test with RXF 393 renal, 29.6 µM; with UACC-257 melanoma, 31.6 µM.

As to `Cc1sc2c(c1C)C(c1ccc(Cl)cc1)=N[C@@H](CC(=O)Nc1ccc(O)cc1)c1nnc(C)n1-2`, the GI50 in the test with MALME-3M melanoma is 12.5 µM; with M14 melanoma, 0.276 µM; with OVCAR-8 ovarian, 2.26 µM; with KM12 colon, 4.52 µM; with SNB-19 CNS, 0.721 µM; in the test on CCRF-CEM leukemia it was 0.317 µM. For the same compound, the GI50 in the test on HCT-116 colon is 0.499 µM; in the test with COLO 205 colon, 0.146 µM; in the test on RXF 393 renal, 1.79 µM; with UACC-257 melanoma, 0.632 µM. For the same compound, the TGI with MALME-3M melanoma came out at 33.4 µM; in the test on M14 melanoma it was 20.2 µM; in the test with OVCAR-8 ovarian it was 40.6 µM; with KM12 colon it was 29.6 µM; in the test on SNB-19 CNS, 31.3 µM; in the test on CCRF-CEM leukemia it was 31.4 µM. Further, the TGI with HCT-116 colon is 17.8 µM; in the test on COLO 205 colon, 14.3 µM; with RXF 393 renal, 15.5 µM; in the test with UACC-257 melanoma, 26.9 µM.

Take `CCN1CCN(c2cc(C)nc(NCc3cc(Nc4ccnc5cc(Cl)ccc45)ccc3F)n2)CC1`: the GI50 is 1.95 µM in the test with MALME-3M melanoma; 1.72 µM in the test with M14 melanoma; 4.11 µM with OVCAR-8 ovarian; 5.3 µM in the test on KM12 colon; 3.71 µM with SNB-19 CNS; 2.55 µM with CCRF-CEM leukemia. In addition, the GI50 in the test with HCT-116 colon is 1.2 µM; with COLO 205 colon it was 0.897 µM; in the test with RXF 393 renal, 1.86 µM; in the test on UACC-257 melanoma, 2.17 µM. Further, the TGI in the test on MALME-3M melanoma is 3.91 µM; in the test with M14 melanoma, 3.4 µM; in the test on OVCAR-8 ovarian, over 100 µM; in the test on KM12 colon it was over 100 µM; in the test on SNB-19 CNS, over 100 µM; in the test with CCRF-CEM leukemia it was over 100 µM. The TGI with HCT-116 colon worked out at 4.1 µM; with COLO 205 colon, 2.81 µM; in the test with RXF 393 renal it was 4.19 µM; in the test on UACC-257 melanoma, 4.33 µM.
